A value given as a limit tells only on which side of the number the result lay.

The values below come from patent US11504367B2, “Compounds and methods for treating oxalate-related diseases” (OxaluRx, Inc., priority 2019, dated 2022).

Sequence of recombinant full-length human hydroxyacid oxidase 1 (HAO1), the equivalents of hGOX (Q9UJM8 whole entry): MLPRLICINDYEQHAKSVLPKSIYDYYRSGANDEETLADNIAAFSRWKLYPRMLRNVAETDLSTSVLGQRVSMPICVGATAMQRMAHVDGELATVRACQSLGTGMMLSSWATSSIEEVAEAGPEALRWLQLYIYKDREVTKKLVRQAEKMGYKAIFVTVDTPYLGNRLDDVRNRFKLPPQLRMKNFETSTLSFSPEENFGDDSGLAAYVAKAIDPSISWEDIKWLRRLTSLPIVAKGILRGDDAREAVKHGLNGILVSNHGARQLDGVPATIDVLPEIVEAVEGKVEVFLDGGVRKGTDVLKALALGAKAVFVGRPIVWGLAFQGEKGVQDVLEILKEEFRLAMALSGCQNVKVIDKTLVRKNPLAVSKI

The assay addresses recombinant full-length human hydroxyacid oxidase 1 (HAO1), the equivalents of hGOX (Homo sapiens (Human), UniProt Q9UJM8). Description: In-vitro human glycolate oxidase (hGOX) assay (Amplex red fluorescence). It counts as biochemical. The conditions noted are these: 6 nM recombinant human GO, 85 μM glycolate, 10 min preincubation. As to the method:
The in-vitro glycolate oxidase assay was performed using recombinant full-length human hydroxyacid oxidase 1 (HAO1), the equivalents of hGOX. […] Purified HAO1 was dissolved in assay buffer consisting of 10 mM NaCl, 110 mM KCl, 2 mM MgCl2, 50 mM HEPES (pH 7.4), and 0.01% Triton™ X-100.
The plates were incubated for 10 min at room temperature, at which point Amplex red reagent (50 μM) was added.
The fluorescence intensity signal was measured on a VariosKan LUX instrument using an excitation of 560 nm and an emission of 590 nm. The IC50 values were calculated using Graphpad Prism. The fluorescence signal of wells containing only DMSO was defined as 100% GO activity, while the fluorescence signal without the glycolate substrate was defined as 0% GO activity.
With `O=C(O)c1nn[nH]c1Oc1cccc(C#Cc2cccc3[nH]ncc23)c1` [Example 328, 5-(3-(2-(1H-Indazol-4-yl)ethynyl)phenoxy)-1H-1,2,3-triazole-4-carboxylic Acid], the half-maximal inhibitory concentration (IC50) was found to be 1 nM. For `C#Cc1ccc(Oc2[nH]nnc2C(=O)O)cc1` [Example 2, 5-(4-Ethynylphenoxy)-1H-1,2,3-triazole-4-carboxylic Acid] the value was 90 nM; for `O=C(O)c1nonc1Oc1cccc(C#CCC2CC2)c1` [Example 370, 4-(3-(3-Cyclopropylprop-1-ynyl)phenoxy)-1,2,5-oxadiazole-3-carboxylic Acid], greater than 1000 nM.

Regarding `N#Cc1ccc(C#Cc2ccc(Oc3[nH]nnc3C(=O)O)cc2F)cc1` [Example 269, 5-(4-((4-Cyanophenyl)ethynyl)-3-fluorophenoxy)-1H-1,2,3-triazole-4-carboxylic Acid], the half-inhibitory concentration (IC50) was determined as 1 nM. Regarding `O=C(O)c1nn[nH]c1Oc1cccc(C#CC2CCC3(CC2)OCCO3)c1` [Example 351, 5-(3-(1,4-Dioxaspiro[4.5]decan-8-ylethynyl)phenoxy)-1H-1,2,3-triazole-4-carboxylic Acid], the IC50 stood at 20 nM. For `CC(C)CC#Cc1cccc([S+]([O-])c2[nH]nnc2C(=O)O)c1` (stereo not drawn) [Example 374, 5-(3-(4-Methylpent-1-ynyl)phenylsulfinyl)-1H-1,2,3-triazole-4-carboxylic Acid] the value was greater than 1000 nM; for `O=C(O)c1nn[nH]c1Oc1ccc(C#Cc2cccc3[nH]ncc23)cc1` [Example 327, 5-(4-(2-(1H-Indazol-4-yl)ethynyl)phenoxy)-1H-1,2,3-triazole-4-carboxylic Acid], 2 nM. As for `CC(C)C#Cc1ccc(Oc2[nH]nnc2C(=O)O)cc1` [Example 9, 5-(4-(3-Methylbut-1-ynyl)phenoxy)-1H-1,2,3-triazole-4-carboxylic Acid], the IC50 came out at 62 nM. For the compound `O=C(O)c1nn[nH]c1Oc1cccc(C#Cc2cnccn2)c1` [Example 338, 5-(3-(2-(Pyrazin-2-yl)ethynyl)phenoxy)-1H-1,2,3-triazole-4-carboxylic Acid], the IC50 was 4 nM.

As for `COc1ccc(Oc2[nH]nnc2C(=O)O)cc1C#Cc1ccccc1` [Example 264, 5-(4-Methoxy-3-(2-phenylethynyl)phenoxy)-1H-1,2,3-triazole-4-carboxylic Acid], the IC50 turned out to be 20 nM.

Turning to `O=C(O)c1nn[nH]c1Oc1ccc(C#Cc2ncccn2)cc1` [Example 336, 5-(4-(2-(Pyrimidin-2-yl)ethynyl)phenoxy)-1H-1,2,3-triazole-4-carboxylic Acid], the IC50 came out at 25 nM. As for `Cn1cc(Oc2[nH]nnc2C(=O)O)cc(C#CCC2CC2)c1=O` [Example 368, 5-(5-(3-Cyclopropylprop-1-ynyl)-1,6-dihydro-1-methyl-6-oxopyridin-3-yloxy)-1H-1,2,3-triazole-4-carboxylic Acid], the IC50 was greater than 1000 nM. With `O=C(O)c1nn[nH]c1Oc1ccc(C#Cc2ccccn2)cc1` [Example 308, 5-(4-(2-(Pyridin-2-yl)ethynyl)phenoxy)-1H-1,2,3-triazole-4-carboxylic Acid], the IC50 is 10 nM. In the case of `O=C(O)c1nn[nH]c1Oc1ccc(C#Cc2ccccc2)c(F)c1` [Example 146, 5-(3-Fluoro-4-(2-phenylethynyl)phenoxy)-1H-1,2,3-triazole-4-carboxylic Acid], the IC50 came to 1 nM. Turning to `O=C(O)c1nn[nH]c1Oc1ccc(C#Cc2cnccn2)cc1` [Example 337, 5-(4-(2-(Pyrazin-2-yl)ethynyl)phenoxy)-1H-1,2,3-triazole-4-carboxylic Acid], the IC50 is 7 nM. For `O=C(O)c1nn[nH]c1Oc1cccc(C#Cc2ccc(F)cc2)c1` [Example 289, 5-(3-(2-(4-Fluorophenyl)ethynyl)phenoxy)-1H-1,2,3-triazole-4-carboxylic Acid] the value was 1 nM; for `Cn1nccc1C#Cc1ccc(Oc2[nH]nnc2C(=O)O)cc1` [Example 321, 5-(4-(2-(1-Methyl-1H-pyrazol-5-yl)ethynyl)phenoxy)-1H-1,2,3-triazole-4-carboxylic Acid], 5 nM. For `O=C(O)c1nn[nH]c1Oc1ccc(C#Cc2cccnn2)cc1` [Example 339, 5-(4-(2-(Pyridazin-3-yl)ethynyl)phenoxy)-1H-1,2,3-triazole-4-carboxylic Acid] the value was 4 nM. For `CC(C)(F)CC#Cc1cccc(Oc2[nH]nnc2C(=O)O)c1` [Example 378, 5-(3-(4-Fluoro-4-methylpent-1-ynyl)phenoxy)-1H-1,2,3-triazole-4-carboxylic Acid] the value was 40 nM; for `CS(=O)(=O)c1ccc(Oc2[nH]nnc2C(=O)O)cc1C#Cc1ccccc1` [Example 149, 5-(4-(Methylsulfonyl)-3-(2-phenylethynyl)phenoxy)-1H-1,2,3-triazole-4-carboxylic Acid], 14 nM. `Cc1cc(C#Cc2cccc(Oc3[nH]nnc3C(=O)O)c2)ccn1` [Example 296, 5-(3-(2-(2-Methylpyridin-4-yl)ethynyl)phenoxy)-1H-1,2,3-triazole-4-carboxylic Acid]: the IC50 turned out to be 1 nM.

`O=C(O)c1nn[nH]c1Cc1ccc(C#CCC2CC2)cc1` [Example 364, 5-(4-(3-Cyclopropylprop-1-ynyl)benzyl)-1H-1,2,3-triazole-4-carboxylic Acid]: the IC50 was 94 nM. With `O=C(O)c1nn[nH]c1Cc1cccc(C#CCC2CC2)c1` [Example 365, 5-(3-(3-Cyclopropylprop-1-ynyl)benzyl)-1H-1,2,3-triazole-4-carboxylic Acid] the figure was 98 nM. For `O=C(O)c1nn[nH]c1Oc1cccc(C#Cc2ccccn2)c1` [Example 311, 5-(3-(2-(Pyridin-2-yl)ethynyl)phenoxy)-1H-1,2,3-triazole-4-carboxylic Acid] the value was 3 nM. Turning to `Cn1ncc2ccc(C#Cc3ccc(Oc4[nH]nnc4C(=O)O)cc3)cc21` [Example 318, 5-(4-(2-(1-Methyl-1H-indazol-6-yl)ethynyl)phenoxy)-1H-1,2,3-triazole-4-carboxylic Acid], the half-maximal inhibitory concentration (IC50) amounted to 2 nM. Regarding `O=C(O)c1nn[nH]c1Oc1ccc(C#Cc2nccs2)cc1` [Example 341, 5-(4-(2-(Thiazol-2-yl)ethynyl)phenoxy)-1H-1,2,3-triazole-4-carboxylic Acid], the IC50 is 28 nM. For `Cc1[nH]nc(Oc2cccc(C#CCC3CC3)c2)c1C(=O)O` [Example 359, 3-(3-(3-Cyclopropylprop-1-ynyl)phenoxy)-5-methyl-1H-pyrazole-4-carboxylic Acid] the value was greater than 1000 nM; for `Cn1ncc2cccc(C#Cc3cccc(Oc4[nH]nnc4C(=O)O)c3)c21` [Example 326, 5-(3-(2-(1-Methyl-1H-indazol-7-yl)ethynyl)phenoxy)-1H-1,2,3-triazole-4-carboxylic Acid], 2 nM. As to `Cn1cc(C#Cc2cccc(Oc3[nH]nnc3C(=O)O)c2)ccc1=O` [Example 209, 4-(3-((1-Methyl-6-oxo-1,6-dihydropyridin-3-yl)ethynyl)phenoxy)-1H-1,2,3-triazole-5-carboxylic Acid], the IC50 amounted to 8 nM.

For `CS(=O)(=O)c1cccc(C#Cc2cccc(Oc3[nH]nnc3C(=O)O)c2)c1` [Example 191, 5-(3-(2-(3-(Methylsulfonyl)phenyl)ethynyl)phenoxy)-1H-1,2,3-triazole-4-carboxylic Acid], the concentration for half-maximal inhibition (IC50) came out at 6 nM. Take `O=C(O)c1nn[nH]c1Oc1cccc(C#Cc2ccc3cn[nH]c3c2)c1` [Example 330, 5-(3-(2-(1H-Indazol-6-yl)ethynyl)phenoxy)-1H-1,2,3-triazole-4-carboxylic Acid]: the 50% inhibitory concentration (IC50) was 1 nM. In the case of `O=C(O)c1nn[nH]c1Oc1ccc(C#CC(F)(F)F)cc1` [Example 335, 5-(4-(3,3,3-Trifluoroprop-1-ynyl)phenoxy)-1H-1,2,3-triazole-4-carboxylic Acid], the 50% inhibitory concentration (IC50) was 23 nM.

As for `O=C(O)c1nn[nH]c1Oc1cccc(C#Cc2ncc[nH]2)c1` [Example 332, 5-(3-(2-(1H-Imidazol-2-yl)ethynyl)phenoxy)-1H-1,2,3-triazole-4-carboxylic Acid], the half-inhibitory concentration (IC50) was found to be 7 nM.

Regarding `CCOC(=O)c1nn[nH]c1S(=O)(=O)c1cccc(C#CCC(C)C)c1` [Example 375, Ethyl 5-(3-(4-methylpent-1-ynyl)phenylsulfonyl)-1H-1,2,3-triazole-4-carboxylate], the IC50 is greater than 1000 nM.

Turning to `CS(=O)(=O)c1ccc(C#Cc2cc(F)cc(Oc3[nH]nnc3C(=O)O)c2)cc1` [Example 274, 5-(3-Fluoro-5-(2-(4-(methylsulfonyl)phenyl)ethynyl)phenoxy)-1H-1,2,3-triazole-4-carboxylic Acid], the half-inhibitory concentration (IC50) is 5 nM. With `O=C(O)c1nn[nH]c1Oc1cc(F)cc(C#Cc2ccccc2)c1` [Example 258, 5-(3-Fluoro-5-(2-phenylethynyl)phenoxy)-1H-1,2,3-triazole-4-carboxylic Acid] the figure was 2 nM; with `CS(=O)(=O)c1ccc(C#Cc2ccc(Oc3[nH]nnc3C(=O)O)cc2F)cc1` [Example 272, 5-(3-Fluoro-4-(2-(4-(methylsulfonyl)phenyl)ethynyl)phenoxy)-1H-1,2,3-triazole-4-carboxylic Acid], 2 nM. For the compound `Cn1ccc(C#Cc2ccc(Oc3[nH]nnc3C(=O)O)cc2)cc1=O` [Example 256, 4-(4-((1-Methyl-2-oxo-1,2-dihydropyridin-4-yl)ethynyl)phenoxy)-1H-1,2,3-triazole-5-carboxylic Acid], the IC50 was 2 nM.

Consider `O=C(O)c1nn[nH]c1Nc1ccc(C#CCC2CC2)cc1` [Example 362, 5-(4-(3-Cyclopropylprop-1-ynyl)phenylamino)-1H-1,2,3-triazole-4-carboxylic Acid], for which the IC50 is 230 nM.
